# From patent publication US20100144712A1 (priority 2007, published 2010)
# Key:
# Assay type in all cases: cell-based
# [1] = tested on: Candida albican ATCC MYA-1003; experiment: In vitro antifungal activity (MIC80), Candida albican ATCC MYA-1003; settings: Candida; Table 2, MYA 1003; read-out: Minimal inhibitory concentration (MIC80)
# Method in brief: (§1)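 Broth microdilution in RPMI 1640 with 2% (v/v) final DMSO, test solutions 0.25 to 256 […]. Inoculum of 1.0×10^3–5.0×10^3 CFU/ml came from colonies grown 2–3 days at 35 °C, and alamarBlue was added. MIC80 is the lowest concentration reducing growth by 80% versus untreated control.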
# [2] = tested on: Candida albican ATCC MYA-576; experiment: In vitro antifungal activity (MIC80), Candida albican ATCC MYA-576; settings: Candida; Table 2, MYA 576; read-out: Minimal inhibitory concentration (MIC80)
# Method in brief: as §1
# [3] = tested on: Candida albican ATCC 64124; experiment: In vitro antifungal activity (MIC80), Candida albican ATCC 64124; settings: Candida, ATCC64124; Table 2, 64124; read-out: Minimal inhibitory concentration (MIC80)
# Method in brief: as §1
# [4] = tested on: Candida albican ATCC 90873; experiment: In vitro antifungal activity (MIC80), Candida albican ATCC 90873; settings: Candida, ATCC90873; Table 2, ATCC 90873; read-out: Minimal inhibitory concentration (MIC80)
# Method in brief: as §1
# [5] = tested on: Candida albican ATCC 204276; experiment: In vitro antifungal activity (MIC80), Candida albican ATCC 204276; settings: ATCC204276, Table 2, 204276, read-out: Minimal inhibitory concentration (MIC80)
# Method: (§2) In vitro antifungal activities of the inventive antifungal compounds were evaluated using test strains including Candida albican (ATCC 90873, 204276, 62342, 64124, 64550, 96901, MYA-573, MYA-574, MYA-575, MYA-576, MYA-1003) and Aspergillus fumigatus (ATCC 16424). Test samples and positive control samples were prepared by dissolving the inventive compounds and comparative compounds, i.e., amphotericin B, fluconazole and itraconazole, in DMSO, respectively, and each successively diluted with medium to obtain test and positive control solutions having test compound concentrations of 0.125 μg/ml to a maximum concentration not generating turbidity. Minimal inhibitory concentration (MIC80) of each compound was determined as the lowest concentration of the test compounds required to reduce growth by 80% relative to a control strain not treated.
# (§3) 1) Test strain: Candida albican ATCC 90873, 204276, 62342, 64124, 64550, 96901, MYA-573, MYA-574, MYA-575, MYA-576, MYA-1003, and Aspergillus fumigatus ATCC 16424 were commercially obtained from The American Type Culture Collection (ATCC) and subcultured in CHEMON Co. Ltd. (amphotericin B was commercially purchased from Sigma, and fluconazole and itraconazole were prepared according to methods described in British Patent No. 2,099,818; and U.S. Pat. No. 4,267,179, respectively).
# (§4) 2) Medium and culture condition: Candida albican was cultured in Sabourad Dextrose Agar, YM Agar or Potato Dextrose Agar according to ATCC information at a temperature of 37° C., 35° C., 30° C. or 25° C. Aspergillus fumigatus was cultured in Malt Extract Agar or Potato Dextrose Agar at a temperature ranging from 24 to 27° C.
# (§5) 3) Preparation of test samples: the inventive compounds and comparative compounds were each diluted with DMSO to obtain 1 to 2 ml of a test sample in a concentration of 100-folds of the determining maximum concentration (256 μg/ml).
# (§6) The test samples were each successively diluted with RPMI 1640 to obtain test solutions having concentrations of […] in a 12×75 mm sterilized disposable culture tube. The final concentration of DMSO was adjusted to […] (v/v).
# (§7) 5) Preparation of strain solution and inoculation
# (§8) Candida albican strains were each subcultured in Sabourad Dextrose Agar, YM Agar or Potato Dextrose Agar medium at 35° C. for 2˜3 days. In the case of yeasts, a single colony was taken from prominent colonies and suspended in 0.85% sterile physiological saline solution and the turbidity of the suspension was adjusted to 80˜82% at 530 nm, and then diluted 50-fold with RPMI 1640 medium to 1.0×10^3˜5.0×10^3 CFU/ml. The turbidity of fungi was adjusted to 80˜82% and the suspension was diluted 50-fold to […]. Aspergillus fumigatus strains were subcultured in Malt Extract Agar for 7˜10 days, and a single colony was taken from prominent colonies and suspended in 0.85% sterile physiological saline solution and the suspension was adjusted to 0.108 at 530 nm, and then diluted 1000-fold with RPMI 1640 medium to 0.4×10^2˜5×10^4 CFU/ml. The turbidity of fungi was adjusted to 80˜82% and the suspension was diluted 50-fold to 0.4102˜0.5104 CFU/ml.
# (§9) The strain solutions thus obtained were each seeded into a sterilized 96-well microplate, 0.1 ml of each test solution were added thereto, and […] of alamarblue was treated to each well (Biosource, #DAL1100). This procedure was repeated 2 times.
# (§10) Minimal inhibitory concentration (MIC80) of each compound was determined as the lowest concentration of the test compounds required to reduce growth by 80% relative to a control strain not treated.
# [6] = tested on: Candida albican ATCC MYA-573; experiment: In vitro antifungal activity (MIC80), Candida albican ATCC MYA-573; settings: Candida; Table 2, MYA 573; read-out: Minimal inhibitory concentration (MIC80)
# Method in brief: as §1
# [7] = tested on: Candida albican ATCC MYA-574; experiment: In vitro antifungal activity (MIC80), Candida albican ATCC MYA-574; settings: Candida; Table 2, MYA 574; read-out: Minimal inhibitory concentration (MIC80)
# Method in brief: as §1
# [8] = tested on: Candida albican ATCC 64550; experiment: In vitro antifungal activity (MIC80), Candida albican ATCC 64550; settings: Candida, ATCC64550; Table 2, 64550; read-out: Minimal inhibitory concentration (MIC80)
# Method in brief: as §1
# [9] = tested on: Candida albican ATCC MYA-575; experiment: In vitro antifungal activity (MIC80), Candida albican ATCC MYA-575; settings: Candida; Table 2, MYA 575; read-out: Minimal inhibitory concentration (MIC80)
# Method in brief: as §1
# [10] = tested on: Candida albican ATCC 62342; experiment: In vitro antifungal activity (MIC80), Candida albican ATCC 62342; settings: Candida, ATCC62342; Table 2, 62342; read-out: Minimal inhibitory concentration (MIC80)
# Method in brief: as §1
# [11] = tested on: Candida albican ATCC 96901; experiment: In vitro antifungal activity (MIC80), Candida albican ATCC 96901; settings: Candida, ATCC96901; Table 2, ATCC 96901; read-out: Minimal inhibitory concentration (MIC80)
# Method in brief: as §1
# [12] = tested on: Aspergillus fumigatus (ATCC 16424); experiment: In vitro antifungal activity (MIC80), Aspergillus fumigatus ATCC 16424; settings: Aspergillus fumigatus, ATCC16424, Table 2, ATCC 16424; read-out: Minimal inhibitory concentration (MIC80)
# Method: as §2, §3, §4, §5, §6, §7, §8, §9, §10
# MIC80 of each of the compounds of which antifungal activities can be confirmed by Table 2 was determined using other test strains, i.e., Aspergillus fumigatus ATCC 16424 and MYA-1163, Aspergillus terreus ATCC 28301, Aspergillus flavus ATCC MYA-1004, and Aspergillus niger ATCC 9142.
MIC80 [1],MIC80 [2],MIC80 [3],MIC80 [4],MIC80 [5],MIC80 [6],MIC80 [7],MIC80 [8],MIC80 [9],MIC80 [10],MIC80 [11],MIC80 [12],Compound
> 128 µg/mL,0.125 µg/mL,8 µg/mL,0.125 µg/mL,0.125 µg/mL,1 µg/mL,8 µg/mL,4 µg/mL,8 µg/mL,0.5 µg/mL,8 µg/mL,0.5 µg/mL,COc1ccc(C(=O)c2cnc3sc(C(=O)N4CCN(C(C)C(O)(Cn5cncn5)c5ccc(F)cc5F)CC4)cn23)cc1 (stereo not drawn) [Example 57]
> 128 µg/mL,0.125 µg/mL,16 µg/mL,0.125 µg/mL,0.125 µg/mL,1 µg/mL,8 µg/mL,4 µg/mL,8 µg/mL,0.5 µg/mL,8 µg/mL,1 µg/mL,"CC(N1CCN(C(=O)c2cn3c(C(=O)c4ccccc4)cnc3s2)CC1)C(O)(Cn1cncn1)c1ccc(F)cc1F [Example 55, (4-((2R,3R)-3-(2,4-difluorophenyl)-3-hydroxy-4-(1H-1,2,4-triazol-1-yl)butan-2-yl)piperazin-1-yl)(5-benzoyl-imidazo[2,1,-b]-thiazol-2-yl)methanone]"

# Further lines, the compound ahead of its results:
Compound,MIC80 [1],MIC80 [2],MIC80 [3],MIC80 [4],MIC80 [5],MIC80 [6],MIC80 [7],MIC80 [8],MIC80 [9],MIC80 [10],MIC80 [11],MIC80 [12]
"C[C@@H](N1CCN(c2nc3ccccc3o2)CC1)[C@](O)(Cn1cncn1)c1ccc(F)cc1F [Example 1, (2R,3R)-3-(4-(benzooxazol-2-yl)piperazin-1-yl)-2-(2,4-difluorophenyl)-1-(1H-1,2,4-triazol-1-yl)butan-2-ol]",128 µg/mL,0.125 µg/mL,4 µg/mL,0.125 µg/mL,0.125 µg/mL,1 µg/mL,32 µg/mL,1 µg/mL,32 µg/mL,0.125 µg/mL,4 µg/mL,0.5 µg/mL
"C[C@@H](N1CCN(C(=O)c2nc(-c3ccc(F)cc3)ns2)CC1)[C@](O)(Cn1cncn1)c1ccc(F)cc1F [Example 52, (3-(4-fluorophenyl)-1,2,4-thiadiazol-5-yl)(4-((2R,3R)-3-(2,4-difluorophenyl)-3-hydroxy-4-(1H-1,2,4-triazol-1-yl)butan-2-yl)piperazin-1-yl)methanone]",> 128 µg/mL,0.125 µg/mL,> 128 µg/mL,0.125 µg/mL,0.125 µg/mL,4 µg/mL,> 128 µg/mL,4 µg/mL,> 128 µg/mL,4 µg/mL,32 µg/mL,1 µg/mL
"C[C@@H](N1CCN(Cc2ccco2)CC1)[C@](O)(Cn1cncn1)c1ccc(F)cc1F [Example 43, (2R,3R)-2-(2,4-difluorophenyl)-3-(4-((furan-2-yl)methyl)piperazin-1-yl)-1-(1H-1,2,4-triazol-1-yl)butan-2-ol]",> 128 µg/mL,0.25 µg/mL,64 µg/mL,0.125 µg/mL,0.125 µg/mL,4 µg/mL,128 µg/mL,16 µg/mL,128 µg/mL,4 µg/mL,64 µg/mL,64 µg/mL
"C[C@@H](N1CCN(c2ncccn2)CC1)[C@](O)(Cn1cncn1)c1ccc(F)cc1F [Example 18, (2R,3R)-2-(2,4-difluorophenyl)-3-(4-(pyrimidin-2-yl)piperazin-1-yl)-1-(1H-1,2,4-triazol-1-yl)butan-2-ol]",> 128 µg/mL,0.125 µg/mL,16 µg/mL,0.125 µg/mL,0.125 µg/mL,1 µg/mL,> 128 µg/mL,2 µg/mL,> 128 µg/mL,4 µg/mL,8 µg/mL,0.125 µg/mL
"C[C@@H](N1CCN(c2nc3ccccc3n2C)CC1)[C@](O)(Cn1cncn1)c1ccc(F)cc1F [Example 3, (2R,3R)-2-(2,4-difluorophenyl)-3-(4-(1-methyl-1H-benzoimidazol-2-yl)piperazin-1-yl)-1-(1H-1,2,4-triazol-1-yl)butan-2-ol]",> 128 µg/mL,0.125 µg/mL,16 µg/mL,0.125 µg/mL,0.125 µg/mL,4 µg/mL,16 µg/mL,2 µg/mL,16 µg/mL,8 µg/mL,4 µg/mL,1 µg/mL
